# In ChEMBL document CHEMBL5233206, “An overview on the synthesis of carbohydrate-based molecules with biological activity related to neurodegenerative diseases” (RSC Med Chem, 2021):
# Columns and labels:
# [1] = target: T1, Cholinesterase (Homo sapiens, UniProt P06276)
# [2] = target: T2, Acetylcholinesterase (Electrophorus electricus, UniProt O42275)
# Description: Binding affinity to electrical eel AChE assessed as inhibition constant incubated for 20 mins by absorbance based analysis
# [3] = target: T3, Acetylcholinesterase (Homo sapiens, UniProt P22303)
# Description: Binding affinity to AChE (unknown origin) assessed as inhibition constant incubated for 30 mins by ellman's method
# [4] = target: T1, Cholinesterase; remark: listed apart in the source
# Description: Binding affinity to BuChE (unknown origin) assessed as inhibition constant incubated for 30 mins by ellman's method
# [5] = target: T3, Acetylcholinesterase; test: Inhibition of AChE (unknown origin) at 50 uM incubated for 20 mins by absorbance based analysis relative to control
# [6] = target: T1, Cholinesterase; test: Binding affinity to BuChE (unknown origin) assessed as inhibition constant incubated for 20 mins by absorbance based analysis
# [7] = target: T1, Cholinesterase; test: Inhibition of BuChE (unknown origin) at 50 uM incubated for 20 mins by absorbance based analysis relative to control
# [8] = target: T2, Acetylcholinesterase; test: Inhibition of electrical eel AChE by ellman's method
# [9] = target: T4, Cholinesterase (Equus caballus, UniProt P81908)
# Description: Inhibition of equine serum BuChE by ellman's method
# [10] = target: T4, Cholinesterase; test: Binding affinity to horse serum BuChE using ATCh-iodide as substrate by ellman's method
# [11] = target: Cholinesterase (Mus musculus, UniProt Q03311); test: Inhibition of mouse serum BuChE; assay type: cell-free
# [12] = target: T5, Acetylcholinesterase (Mus musculus, UniProt P21836); test: Inhibition of mouse brain AChE; assay type: tissue-based
# T5 sequence (P21836 whole entry): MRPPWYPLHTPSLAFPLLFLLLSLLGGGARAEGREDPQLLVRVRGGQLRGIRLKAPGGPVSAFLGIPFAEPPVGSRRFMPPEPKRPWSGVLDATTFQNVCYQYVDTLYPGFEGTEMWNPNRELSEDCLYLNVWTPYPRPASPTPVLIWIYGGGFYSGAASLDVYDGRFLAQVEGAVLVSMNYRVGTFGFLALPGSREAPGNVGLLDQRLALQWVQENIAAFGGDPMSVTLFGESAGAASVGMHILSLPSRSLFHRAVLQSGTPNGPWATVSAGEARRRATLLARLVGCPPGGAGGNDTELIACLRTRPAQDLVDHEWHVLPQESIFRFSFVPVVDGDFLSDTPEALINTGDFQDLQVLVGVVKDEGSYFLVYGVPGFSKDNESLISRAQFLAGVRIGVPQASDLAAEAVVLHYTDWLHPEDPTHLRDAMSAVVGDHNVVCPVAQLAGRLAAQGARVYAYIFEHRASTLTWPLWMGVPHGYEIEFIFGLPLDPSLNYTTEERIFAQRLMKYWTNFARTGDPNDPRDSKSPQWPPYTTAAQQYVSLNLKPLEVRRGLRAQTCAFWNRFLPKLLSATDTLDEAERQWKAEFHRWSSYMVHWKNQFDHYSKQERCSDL
# [13] = target: T3, Acetylcholinesterase; test: Inhibition of AChE (unknown origin)
# [14] = Lipophilicity, logP of the compound; assay type: physicochemical; conditions: octanol/water
# [15] = target: T1, Cholinesterase; test: Binding affinity to BuChE (unknown origin) assessed as inhibition constant by ellman's method
# [16] = organism: Homo sapiens; test: Selectivity ratio of IC50 for AChE (unknown origin) to IC50 for BuChE (unknown origin)
# [17] = Antioxidant activity assessed as ABTS radical scavenging activity; assay type: functional
# T3 sequence (P22303 whole entry): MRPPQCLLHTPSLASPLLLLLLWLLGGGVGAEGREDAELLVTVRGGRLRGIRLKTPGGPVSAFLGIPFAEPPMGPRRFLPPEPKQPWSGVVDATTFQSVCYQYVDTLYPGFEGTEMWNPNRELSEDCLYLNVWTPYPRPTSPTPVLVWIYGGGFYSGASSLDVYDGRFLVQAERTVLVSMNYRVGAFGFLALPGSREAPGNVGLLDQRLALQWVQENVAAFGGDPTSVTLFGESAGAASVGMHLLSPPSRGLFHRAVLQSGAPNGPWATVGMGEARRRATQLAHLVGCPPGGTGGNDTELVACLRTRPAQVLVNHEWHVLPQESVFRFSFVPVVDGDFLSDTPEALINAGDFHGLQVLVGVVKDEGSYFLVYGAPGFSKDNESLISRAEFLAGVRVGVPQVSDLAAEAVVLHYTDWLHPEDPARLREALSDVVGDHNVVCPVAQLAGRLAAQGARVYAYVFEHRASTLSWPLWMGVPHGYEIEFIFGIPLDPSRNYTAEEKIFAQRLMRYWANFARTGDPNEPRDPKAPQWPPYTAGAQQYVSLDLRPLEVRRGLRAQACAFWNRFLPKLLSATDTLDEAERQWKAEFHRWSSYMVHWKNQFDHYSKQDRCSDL
# T4 sequence (P81908 whole entry): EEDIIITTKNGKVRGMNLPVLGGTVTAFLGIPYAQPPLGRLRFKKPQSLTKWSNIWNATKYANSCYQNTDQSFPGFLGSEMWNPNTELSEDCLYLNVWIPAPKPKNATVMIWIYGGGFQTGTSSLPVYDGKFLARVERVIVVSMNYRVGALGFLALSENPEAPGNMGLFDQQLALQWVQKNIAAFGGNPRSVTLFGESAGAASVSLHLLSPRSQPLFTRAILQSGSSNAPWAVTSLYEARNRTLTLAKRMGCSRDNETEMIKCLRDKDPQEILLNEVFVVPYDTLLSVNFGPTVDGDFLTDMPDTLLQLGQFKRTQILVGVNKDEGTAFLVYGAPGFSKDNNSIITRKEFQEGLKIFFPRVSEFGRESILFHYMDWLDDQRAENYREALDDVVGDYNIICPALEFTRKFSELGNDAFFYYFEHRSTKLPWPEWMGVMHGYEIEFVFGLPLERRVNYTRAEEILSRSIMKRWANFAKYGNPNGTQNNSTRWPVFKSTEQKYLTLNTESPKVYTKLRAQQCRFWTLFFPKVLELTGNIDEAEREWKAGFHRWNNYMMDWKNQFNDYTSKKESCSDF
# T2 sequence (O42275 whole entry): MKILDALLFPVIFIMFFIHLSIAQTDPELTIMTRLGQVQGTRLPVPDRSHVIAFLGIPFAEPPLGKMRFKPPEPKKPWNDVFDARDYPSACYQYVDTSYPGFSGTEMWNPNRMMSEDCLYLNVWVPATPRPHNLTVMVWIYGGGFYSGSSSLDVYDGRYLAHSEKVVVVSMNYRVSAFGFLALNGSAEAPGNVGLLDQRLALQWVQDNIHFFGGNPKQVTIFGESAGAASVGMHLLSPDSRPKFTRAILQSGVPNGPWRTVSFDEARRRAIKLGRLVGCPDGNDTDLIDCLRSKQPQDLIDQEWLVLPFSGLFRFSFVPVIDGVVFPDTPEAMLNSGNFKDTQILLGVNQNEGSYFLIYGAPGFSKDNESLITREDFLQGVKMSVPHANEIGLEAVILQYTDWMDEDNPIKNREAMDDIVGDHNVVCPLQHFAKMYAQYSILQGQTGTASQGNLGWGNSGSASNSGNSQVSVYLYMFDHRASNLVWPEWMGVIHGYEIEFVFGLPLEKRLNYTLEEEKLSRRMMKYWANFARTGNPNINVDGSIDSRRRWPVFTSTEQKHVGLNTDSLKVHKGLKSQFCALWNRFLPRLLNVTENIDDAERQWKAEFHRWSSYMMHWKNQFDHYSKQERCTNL
# T1 sequence (P06276 whole entry): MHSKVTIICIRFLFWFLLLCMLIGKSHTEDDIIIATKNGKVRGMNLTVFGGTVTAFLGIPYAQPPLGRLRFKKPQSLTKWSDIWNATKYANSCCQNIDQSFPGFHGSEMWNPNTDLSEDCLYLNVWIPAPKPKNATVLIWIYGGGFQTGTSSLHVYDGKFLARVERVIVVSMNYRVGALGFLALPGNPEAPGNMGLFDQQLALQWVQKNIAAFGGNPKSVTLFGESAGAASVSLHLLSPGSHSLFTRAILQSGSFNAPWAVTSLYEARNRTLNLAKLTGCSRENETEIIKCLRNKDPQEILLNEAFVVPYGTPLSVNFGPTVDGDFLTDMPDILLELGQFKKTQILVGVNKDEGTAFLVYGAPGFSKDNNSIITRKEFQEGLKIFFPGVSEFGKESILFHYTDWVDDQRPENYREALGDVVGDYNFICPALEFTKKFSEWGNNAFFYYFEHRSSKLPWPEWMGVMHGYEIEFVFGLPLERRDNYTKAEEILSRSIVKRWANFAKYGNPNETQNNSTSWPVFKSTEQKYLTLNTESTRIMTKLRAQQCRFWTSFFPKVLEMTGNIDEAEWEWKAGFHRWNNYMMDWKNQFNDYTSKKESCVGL
# Chain of Cholinesterase (Mus musculus, UniProt Q03311) (Q03311 whole entry): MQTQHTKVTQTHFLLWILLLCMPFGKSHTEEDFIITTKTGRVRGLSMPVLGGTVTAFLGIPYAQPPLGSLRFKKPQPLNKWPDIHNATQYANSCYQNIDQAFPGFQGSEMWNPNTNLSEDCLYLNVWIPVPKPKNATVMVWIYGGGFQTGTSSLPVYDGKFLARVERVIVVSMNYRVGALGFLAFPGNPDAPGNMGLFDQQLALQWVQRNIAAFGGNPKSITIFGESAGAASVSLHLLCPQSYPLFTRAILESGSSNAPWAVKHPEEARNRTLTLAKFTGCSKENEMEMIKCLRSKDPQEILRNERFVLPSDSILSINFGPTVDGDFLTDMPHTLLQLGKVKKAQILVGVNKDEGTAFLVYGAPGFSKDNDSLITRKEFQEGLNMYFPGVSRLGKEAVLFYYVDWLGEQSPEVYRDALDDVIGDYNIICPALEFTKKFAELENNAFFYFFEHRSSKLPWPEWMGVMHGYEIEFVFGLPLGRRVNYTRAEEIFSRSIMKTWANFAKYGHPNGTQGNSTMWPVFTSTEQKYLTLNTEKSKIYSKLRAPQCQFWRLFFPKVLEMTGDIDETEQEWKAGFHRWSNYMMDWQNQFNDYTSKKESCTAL
structure (smiles),measurement,setting,value
COC1O[C@H](Cn2ccc(=O)n(C[C@H]3O[C@H](OC)[C@H](O)[C@@H](O)[C@@H]3O)c2=O)[C@@H](O)[C@H](O)[C@H]1O (some centres not stated),Ki,[1],< 100 µM
same,Ki,[2],22.9 µM
CC(=O)Nc1nc(Cl)c2ncn(C3O[C@H](C(=O)O)[C@@H](OC(C)=O)[C@@H](OC(C)=O)[C@H]3OC(C)=O)c2n1 (some centres not stated),Ki,[3],26.9 µM
same,Ki,[4],> 100 µM
CCCCCCCCO[C@H]1[C@H](OC(C)=O)[C@@H](Cn2c(=O)c3c(ncn3C)n(C)c2=O)OC(OC(C)=O)[C@@H]1OC(C)=O (some centres not stated),inhibition,[5],66.5%
same,Ki,[6],5.4 µM
same,inhibition,[7],75.1%
CCCCCCCCCCCCNC(=O)[C@@H](OCc1ccccc1)[C@H]1OC(OC(C)=O)[C@H](OC(C)=O)[C@H]1OC(C)=O (some centres not stated),Ki,[2],> 100 µM
CO[C@H]1O[C@H](Cn2cnc3c(Cl)nc(NC(C)=O)nc32)[C@@H](OCc2ccccc2)[C@H](OCc2ccccc2)[C@H]1OCc1ccccc1,Ki,[1],< 100 µM
same,Ki,[2],7.1 µM
COc1ccc2c(c1)c(=O)c1ccccc1n2CCCCCCn1cc(CO[C@@H]2O[C@H](CO)[C@@H](O)[C@H]2O)nn1,IC50,[8],81.8 µM
same,IC50,[9],35.1 µM
CCCCCCCCCCCCNC(=O)[C@@H](OCc1ccccc1)[C@H]1OC(N=[N+]=[N-])[C@H](OC(C)=O)[C@H]1OC(C)=O (some centres not stated),Ki,[2],> 100 µM
COC1O[C@H](Cn2ccc(=O)n(C[C@H]3O[C@H](OC)[C@H](OCc4ccccc4)[C@@H](OCc4ccccc4)[C@@H]3OCc3ccccc3)c2=O)[C@@H](OCc2ccccc2)[C@H](OCc2ccccc2)[C@H]1OCc1ccccc1 (some centres not stated),Ki,[1],4 µM
same,Ki,[2],4.2 µM
COc1ccc2c(c1)c(=O)c1ccccc1n2CCCCCCn1cc(CO[C@@H]2O[C@H](CO)[C@H](O)[C@H](O)[C@H]2O)nn1,IC50,[8],44.7 µM
same,IC50,[9],65.6 µM
CC(=O)Nc1nc(Cl)c2ncn(C3O[C@H](CC(=O)NCc4ccccc4)[C@H](OC(C)=O)[C@H]3OC(C)=O)c2n1 (some centres not stated),Ki,[3],14.8 µM
same,Ki,[4],> 100 µM
OC[C@H]1O[C@@H](OCCn2cnc3ccccc32)[C@H](O)[C@@H](O)[C@H]1O,Ki,[10],782 µM
CC1(C)O[C@H]2O[C@H](CNCCCCCCCCCCCNc3c4c(nc5ccccc35)CCCC4)[C@H](O)[C@H]2O1,IC50,[11],0.0049 µM
same,IC50,[12],0.0022 µM
COc1cc(CO)ccc1O[C@@H]1O[C@H](CO)[C@@H](O)[C@H](O)[C@H]1O [VANILLOLOSIDE],IC50,[13],4.55 µM
CC(=O)Nc1nc(Cl)c2ncn(C3O[C@H](C(=O)NCc4ccccc4)[C@@H](OC(C)=O)[C@@H](OC(C)=O)[C@H]3OC(C)=O)c2n1 (some centres not stated),Ki,[3],31 µM
same,Ki,[4],> 100 µM
O=c1c2ccccc2n(CCCCCCn2cc(CO[C@@H]3O[C@H](CO)[C@@H](O)[C@H]3O)nn2)c2ccccc12,logP,[14],2.68
same,IC50,[8],143 µM
same,Ki,[15],1.76 µM
same,IC50,[9],6.95 µM
same,Ratio IC50,[16],20.6
CCCCCCCCCCCCNC(=O)[C@@H](OCc1ccccc1)[C@H]1O[C@H](N=[N+]=[N-])[C@H](OC(C)=O)[C@H]1OCc1ccccc1,Ki,[2],> 100 µM
COC1O[C@H](Cn2ccc(=O)[nH]c2=O)[C@@H](OCc2ccccc2)[C@H](OCc2ccccc2)[C@H]1OCc1ccccc1 (some centres not stated),Ki,[1],< 100 µM
CCCCCCCCO[C@H]1[C@H](OC(C)=O)[C@@H](Cn2c(=O)c3c(ncn3C)n(C)c2=O)OC(NS(C)(=O)=O)[C@@H]1OC(C)=O (some centres not stated),inhibition,[5],28.3%
same,inhibition,[7],52.6%
CC1(C)O[C@H]2O[C@H](CNCCCCCCCCCNc3c4c(nc5ccccc35)CCCC4)[C@H](O)[C@H]2O1,IC50,[11],0.025 µM
same,IC50,[12],0.0051 µM
COc1ccc2c(c1)c(=O)c1ccccc1n2CCCCCCn1cc(CO[C@@H]2O[C@H](CO)[C@@H](O)[C@H](O)[C@H]2O)nn1,logP,[14],2.14
same,IC50,[8],56.1 µM
same,IC50,[9],82.3 µM
COc1ccc2c(c1)c(=O)c1ccccc1n2CCCCCCn1cc(CO[C@H]2C[C@H](O)[C@@H](CO)O2)nn1,IC50,[8],85.1 µM
same,IC50,[9],35.4 µM
CCCCCCCCCCCCNC(=O)[C@@H](OCc1ccccc1)[C@H]1OC(n2cc(-c3ccccc3)nn2)[C@H](OC(C)=O)[C@H]1OC(C)=O (some centres not stated),Ki,[2],9.5 µM
CC1(C)O[C@H]2O[C@H](CNCCCCCCCCCCNc3c4c(nc5ccccc35)CCCC4)[C@H](O)[C@H]2O1,IC50,[11],0.031 µM
same,IC50,[12],0.01 µM
CCCCCCCC[Se]C[C@H]1OC(OC)[C@H](O)[C@H]1O (some centres not stated),IC50,[17],210 µM
CC(=O)Nc1nc(Cl)c2c(ncn2C2O[C@H](C(=O)NCc3ccccc3)[C@@H](OC(C)=O)[C@@H](OC(C)=O)[C@H]2OC(C)=O)n1 (some centres not stated),Ki,[3],18.7 µM
same,Ki,[4],> 100 µM
